Measurements as given in ChEMBL document CHEMBL1201862, “PubChem BioAssay data set” (2004).
Calls of active or inactive are those of the source.

Experiments:
[1] = target: T1, Runt-related transcription factor 1/Core-binding factor subunit beta (Homo sapiens, UniProt Q01196+Q13951); assay: inhibitors of RUNX1 Runt–CBFb-SMMHC binding, primary screen, biochemical, FRET, Cerulean-Runt, Venus-CBFb-SMMHC, uHTS (AID 1434); format: protein assay;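 also: partner is the CBFb-SMMHC leukemia fusion protein rather than wild-type CBFb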
T1 sequence (Q01196 whole entry, the tested form may be a part): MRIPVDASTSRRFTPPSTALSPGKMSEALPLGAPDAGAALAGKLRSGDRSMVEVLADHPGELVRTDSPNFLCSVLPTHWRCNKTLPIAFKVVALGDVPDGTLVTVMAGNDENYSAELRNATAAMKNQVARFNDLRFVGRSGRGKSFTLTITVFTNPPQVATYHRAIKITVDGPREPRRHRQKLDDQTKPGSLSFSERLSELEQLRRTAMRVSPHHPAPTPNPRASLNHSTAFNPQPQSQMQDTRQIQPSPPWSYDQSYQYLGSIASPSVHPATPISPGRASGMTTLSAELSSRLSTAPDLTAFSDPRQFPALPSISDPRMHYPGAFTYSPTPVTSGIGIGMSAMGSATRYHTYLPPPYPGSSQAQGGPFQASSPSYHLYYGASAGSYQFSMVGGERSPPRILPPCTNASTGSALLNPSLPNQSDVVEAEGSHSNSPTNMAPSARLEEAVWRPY
T1 sequence (Q13951 whole entry, the tested form may be a part): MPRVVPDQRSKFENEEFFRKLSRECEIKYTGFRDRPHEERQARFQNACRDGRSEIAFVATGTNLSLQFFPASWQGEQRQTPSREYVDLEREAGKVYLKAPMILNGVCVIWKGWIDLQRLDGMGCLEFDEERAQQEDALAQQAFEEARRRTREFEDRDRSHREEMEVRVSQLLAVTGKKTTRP

[2] = target: T1, Runt-related transcription factor 1/Core-binding factor subunit beta; assay: inhibitors of RUNX1 Runt–CBFb-SMMHC binding, biochemical, TR-FRET (AID 1438); format: protein assay
H9c2 = assay: cells; format: functional, cell-based; details: Rattus norvegicus, H9c2, Myocardium;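 also: confirmatory concentration-response retest of ultra-high-throughput screening hits for modulation of myocardial damage; cell death induced by hydrogen peroxide oxidative stress; compound pretreatment for 60 min then peroxide exposure for 2 h; potency is for protecting the cells against peroxide damage rather than for killing them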
[3] = target: T2, Heat shock factor protein 1 (Mus musculus, UniProt P38532); assay: inhibition of MG132-induced HSE-luciferase signal, confirmation, cell-based, NIH3T3, luminescence, dose retest (AID 2382); format: functional;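 also: NIH3T3 fibroblasts with HSF1-driven luciferase reporter stressed by proteasome inhibitor MG132; luminescence from HSF1-driven luciferase expression after 8 hours of MG132 stress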
T2 sequence (P38532 whole entry): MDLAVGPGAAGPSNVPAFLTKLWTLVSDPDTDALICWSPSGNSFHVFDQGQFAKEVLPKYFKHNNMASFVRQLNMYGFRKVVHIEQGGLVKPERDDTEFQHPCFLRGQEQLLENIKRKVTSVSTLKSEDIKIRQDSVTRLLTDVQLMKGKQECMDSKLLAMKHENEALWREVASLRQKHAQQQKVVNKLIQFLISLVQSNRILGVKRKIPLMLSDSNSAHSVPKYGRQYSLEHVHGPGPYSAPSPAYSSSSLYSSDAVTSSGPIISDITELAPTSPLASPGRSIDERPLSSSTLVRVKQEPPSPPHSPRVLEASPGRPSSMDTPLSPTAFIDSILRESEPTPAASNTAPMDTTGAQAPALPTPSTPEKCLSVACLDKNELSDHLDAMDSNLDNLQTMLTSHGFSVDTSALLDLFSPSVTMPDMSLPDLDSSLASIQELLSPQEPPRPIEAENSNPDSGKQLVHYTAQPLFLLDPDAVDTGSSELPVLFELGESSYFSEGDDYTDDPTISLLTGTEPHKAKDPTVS

[4] = inhibitors of intracellular T. cruzi replication, confirmation, NIH3T3 host cells, beta-gal luminescence (AID 2044); format: functional, cell-based;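 also: intracellular parasites grown in NIH/3T3 mouse fibroblasts as host cells; luminescent beta-galactosidase reporter signal from transgenic T. cruzi replicating inside host cells; inhibitors lower the luminescence signal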
[5] = cytotoxicity toward NIH3T3 fibroblasts, dose response, counter-screen, cell-based, ATP luminescence, mouse fibroblasts (AID 2010); format: functional;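 also: cells exposed to compound for about 90 hours before reading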
[6] = target: T3, G-protein coupled receptor 55 (Homo sapiens, UniProt Q9Y2T6); assay: GPR55 agonists via beta-arrestin recruitment, primary screen, imaging, U2OS cells, beta-arrestin-GFP redistribution (AID 1961); format: functional
T3 sequence (Q9Y2T6 whole entry): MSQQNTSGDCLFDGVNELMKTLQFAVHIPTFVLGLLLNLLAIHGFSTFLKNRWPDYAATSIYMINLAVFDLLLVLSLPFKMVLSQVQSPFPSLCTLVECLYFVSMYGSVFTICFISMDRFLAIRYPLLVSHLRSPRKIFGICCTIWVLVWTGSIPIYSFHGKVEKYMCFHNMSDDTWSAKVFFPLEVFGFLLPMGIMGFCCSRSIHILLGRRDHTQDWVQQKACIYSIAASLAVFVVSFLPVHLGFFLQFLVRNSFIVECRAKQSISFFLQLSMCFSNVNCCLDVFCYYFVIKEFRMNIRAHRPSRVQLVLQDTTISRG

[7] = target: Microphthalmia-associated transcription factor (Homo sapiens, UniProt O75030); assay: TRPM1 promoter luciferase signal decrease, dose response, MITF inhibitor project, cell-based, SK-MEL-5, cherry-picked, set 3 (AID 493073); format: functional
Chain of Microphthalmia-associated transcription factor (O75030 whole entry): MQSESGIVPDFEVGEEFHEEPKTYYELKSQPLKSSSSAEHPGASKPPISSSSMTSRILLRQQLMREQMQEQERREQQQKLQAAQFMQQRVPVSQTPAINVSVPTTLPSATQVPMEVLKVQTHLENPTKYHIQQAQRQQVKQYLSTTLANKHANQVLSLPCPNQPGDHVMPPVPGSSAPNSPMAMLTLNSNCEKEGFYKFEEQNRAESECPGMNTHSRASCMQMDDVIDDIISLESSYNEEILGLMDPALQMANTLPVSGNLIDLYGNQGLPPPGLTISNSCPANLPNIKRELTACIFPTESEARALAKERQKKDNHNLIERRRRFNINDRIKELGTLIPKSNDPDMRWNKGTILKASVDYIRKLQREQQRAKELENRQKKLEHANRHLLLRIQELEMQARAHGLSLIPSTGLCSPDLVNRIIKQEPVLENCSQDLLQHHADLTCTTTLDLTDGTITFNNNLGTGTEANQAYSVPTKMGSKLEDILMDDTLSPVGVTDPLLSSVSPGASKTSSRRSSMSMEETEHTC

[8] = target: T4, G-protein coupled receptor 35 (Homo sapiens, UniProt Q9HC97); assay: GPR35 antagonists blocking zaprinast-driven arrestin recruitment, primary screen, imaging, U2OS, beta-arrestin-GFP, zaprinast agonist (AID 2058); format: functional;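 also: antagonist potency meaning inhibition of agonist-induced arrestin redistribution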
T4 sequence (Q9HC97 whole entry): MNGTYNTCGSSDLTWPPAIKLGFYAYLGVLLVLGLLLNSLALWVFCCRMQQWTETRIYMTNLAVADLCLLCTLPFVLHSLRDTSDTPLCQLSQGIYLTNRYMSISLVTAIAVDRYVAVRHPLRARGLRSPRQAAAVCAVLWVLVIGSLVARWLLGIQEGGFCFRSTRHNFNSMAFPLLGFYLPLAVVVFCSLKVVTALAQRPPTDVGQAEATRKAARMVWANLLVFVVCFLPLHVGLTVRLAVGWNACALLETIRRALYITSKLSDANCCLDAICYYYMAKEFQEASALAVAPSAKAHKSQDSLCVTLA

[9] = target: T4, G-protein coupled receptor 35; assay: SAR Analysis for the identification of Selective Antagonists of ERK1/2 Activity in GPR35-Overexpressing U2OS Cells. [Related pubchem assays: 2079, 2058 ]; format: functional, cell-based
[10] = target: Tyrosine-protein phosphatase non-receptor type 12 (Homo sapiens, UniProt Q05209); assay: SAR Selectivity Analysis of small molecule inhibitors of PEST using pCAP in a fluorescence assay. [Related pubchem assays (depositor defined):AID1779, AID1784, AID2135]; format: functional
Chain of Tyrosine-protein phosphatase non-receptor type 12 (Q05209 whole entry): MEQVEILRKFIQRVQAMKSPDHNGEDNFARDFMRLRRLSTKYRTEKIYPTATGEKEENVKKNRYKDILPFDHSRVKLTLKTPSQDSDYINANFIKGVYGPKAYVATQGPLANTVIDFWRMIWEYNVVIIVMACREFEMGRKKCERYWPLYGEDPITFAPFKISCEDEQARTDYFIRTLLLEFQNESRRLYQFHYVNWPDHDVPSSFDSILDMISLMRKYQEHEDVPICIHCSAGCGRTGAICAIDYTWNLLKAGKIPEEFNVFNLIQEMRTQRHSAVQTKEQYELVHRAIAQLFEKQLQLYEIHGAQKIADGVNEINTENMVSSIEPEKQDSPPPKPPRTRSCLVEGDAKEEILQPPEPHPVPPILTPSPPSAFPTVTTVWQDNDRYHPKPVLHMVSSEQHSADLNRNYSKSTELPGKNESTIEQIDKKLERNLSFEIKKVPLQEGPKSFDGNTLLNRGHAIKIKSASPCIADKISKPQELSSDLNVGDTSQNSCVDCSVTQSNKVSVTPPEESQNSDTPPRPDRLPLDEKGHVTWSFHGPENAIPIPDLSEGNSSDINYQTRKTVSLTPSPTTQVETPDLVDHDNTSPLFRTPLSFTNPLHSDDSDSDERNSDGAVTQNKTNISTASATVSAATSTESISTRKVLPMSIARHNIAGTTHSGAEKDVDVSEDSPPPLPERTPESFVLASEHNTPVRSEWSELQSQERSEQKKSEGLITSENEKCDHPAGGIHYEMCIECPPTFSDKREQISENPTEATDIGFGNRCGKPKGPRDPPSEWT

[11] = target: T5, Tyrosine-protein phosphatase non-receptor type 22 (Homo sapiens, UniProt Q9Y2R2); assay: SAR LYP1 Fluorescent Assay using OMFP substrate for In Vitro dose response studies - Set 3. [Related pubchem assays (depositor defined):AID1779, AID1784, AID2140, AID2686]; format: functional
T5 sequence (Q9Y2R2 whole entry): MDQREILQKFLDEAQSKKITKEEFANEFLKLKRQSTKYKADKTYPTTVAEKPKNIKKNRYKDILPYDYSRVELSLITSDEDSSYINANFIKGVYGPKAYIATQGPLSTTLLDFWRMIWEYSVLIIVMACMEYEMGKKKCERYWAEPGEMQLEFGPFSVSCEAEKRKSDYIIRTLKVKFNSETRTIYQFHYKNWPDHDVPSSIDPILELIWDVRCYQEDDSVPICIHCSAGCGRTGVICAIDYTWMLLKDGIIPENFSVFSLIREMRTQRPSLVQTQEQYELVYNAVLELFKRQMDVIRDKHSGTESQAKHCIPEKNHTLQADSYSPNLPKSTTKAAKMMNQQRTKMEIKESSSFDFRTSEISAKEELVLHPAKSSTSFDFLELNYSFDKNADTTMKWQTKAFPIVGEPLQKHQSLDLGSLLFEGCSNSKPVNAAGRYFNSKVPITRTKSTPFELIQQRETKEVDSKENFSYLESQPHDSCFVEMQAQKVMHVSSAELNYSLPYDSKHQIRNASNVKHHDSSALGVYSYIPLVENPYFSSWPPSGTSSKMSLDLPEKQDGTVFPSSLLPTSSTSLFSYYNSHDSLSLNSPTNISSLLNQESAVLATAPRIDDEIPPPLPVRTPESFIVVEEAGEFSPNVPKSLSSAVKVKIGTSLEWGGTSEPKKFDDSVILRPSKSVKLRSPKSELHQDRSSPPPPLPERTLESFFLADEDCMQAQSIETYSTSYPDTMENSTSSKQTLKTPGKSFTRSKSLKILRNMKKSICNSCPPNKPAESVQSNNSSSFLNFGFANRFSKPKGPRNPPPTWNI

[12] = target: T5, Tyrosine-protein phosphatase non-receptor type 22; assay: LYP (PTPN22) phosphatase inhibitor potency, SAR follow-up, biochemical, pCAP fluorogenic substrate, fluorescence, set 3 (AID 449727); format: functional
[13] = target: T3, G-protein coupled receptor 55; assay: GPR55 antagonists, SAR follow-up, counter-screen for GPR35 antagonist project, imaging, image-based (AID 2397); format: functional
[14] = target: T6, Replicative DNA helicase DnaB (Mycobacterium tuberculosis, UniProt P9WMR3); assay: DnaB intein splicing inhibitors, dose response, biochemical, cell-free fluorescence (AID 449749); format: functional
T6 sequence (P9WMR3 whole entry): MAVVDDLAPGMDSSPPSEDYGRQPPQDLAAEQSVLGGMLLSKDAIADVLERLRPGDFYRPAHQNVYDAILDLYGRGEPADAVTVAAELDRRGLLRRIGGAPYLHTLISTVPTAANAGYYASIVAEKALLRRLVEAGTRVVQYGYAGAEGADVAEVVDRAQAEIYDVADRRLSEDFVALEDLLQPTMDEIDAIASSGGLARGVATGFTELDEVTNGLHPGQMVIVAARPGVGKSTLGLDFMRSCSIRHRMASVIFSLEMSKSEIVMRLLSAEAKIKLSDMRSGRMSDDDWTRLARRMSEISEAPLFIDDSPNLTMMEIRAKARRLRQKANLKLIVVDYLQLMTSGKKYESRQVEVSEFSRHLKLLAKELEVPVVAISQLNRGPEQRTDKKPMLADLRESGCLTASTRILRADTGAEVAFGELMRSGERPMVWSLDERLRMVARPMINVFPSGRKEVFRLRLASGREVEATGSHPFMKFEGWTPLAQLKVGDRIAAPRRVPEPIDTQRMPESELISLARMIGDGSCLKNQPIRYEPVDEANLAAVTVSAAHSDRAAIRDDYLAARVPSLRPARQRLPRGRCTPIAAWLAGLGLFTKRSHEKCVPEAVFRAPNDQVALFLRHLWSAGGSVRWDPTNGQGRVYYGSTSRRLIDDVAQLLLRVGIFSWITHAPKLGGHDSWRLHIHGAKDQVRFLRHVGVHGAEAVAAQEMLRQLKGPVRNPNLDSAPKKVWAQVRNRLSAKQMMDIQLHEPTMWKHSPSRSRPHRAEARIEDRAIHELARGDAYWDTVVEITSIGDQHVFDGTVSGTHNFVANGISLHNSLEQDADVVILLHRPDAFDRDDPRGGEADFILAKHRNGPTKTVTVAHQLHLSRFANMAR

Protein RecA = target: T7, Protein RecA (Mycobacterium tuberculosis, UniProt P9WHJ3); assay: Fluorescence Cell-Free Homogeneous Dose Retest to Identify Inhibitors of RecA-Intein Splicing Activity. [Related pubchem assays (depositor defined):AID2097, AID2223, AID489010, AID492950]; format: functional
T7 sequence (P9WHJ3 whole entry): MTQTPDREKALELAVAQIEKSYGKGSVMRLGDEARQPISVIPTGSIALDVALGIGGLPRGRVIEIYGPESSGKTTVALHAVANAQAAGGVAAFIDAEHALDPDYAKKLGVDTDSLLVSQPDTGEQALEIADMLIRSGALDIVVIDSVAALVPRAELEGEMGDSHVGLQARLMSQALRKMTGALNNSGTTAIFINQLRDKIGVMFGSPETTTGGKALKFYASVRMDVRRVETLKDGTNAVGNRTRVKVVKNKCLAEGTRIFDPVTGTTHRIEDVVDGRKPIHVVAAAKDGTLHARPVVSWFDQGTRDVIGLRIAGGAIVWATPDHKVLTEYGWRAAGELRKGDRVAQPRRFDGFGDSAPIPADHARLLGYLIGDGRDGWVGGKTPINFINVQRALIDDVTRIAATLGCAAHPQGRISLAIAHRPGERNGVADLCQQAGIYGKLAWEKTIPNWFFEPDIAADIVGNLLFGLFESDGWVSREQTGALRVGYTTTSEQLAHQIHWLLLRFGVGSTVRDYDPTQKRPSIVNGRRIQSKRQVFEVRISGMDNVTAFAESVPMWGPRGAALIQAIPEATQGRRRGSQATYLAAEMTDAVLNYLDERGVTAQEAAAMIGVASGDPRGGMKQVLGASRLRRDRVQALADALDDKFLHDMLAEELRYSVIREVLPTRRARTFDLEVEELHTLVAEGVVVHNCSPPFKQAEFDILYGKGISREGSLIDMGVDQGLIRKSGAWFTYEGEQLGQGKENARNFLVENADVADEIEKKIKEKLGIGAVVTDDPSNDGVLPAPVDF

[15] = target: T8, Mannose-6-phosphate isomerase (Homo sapiens, UniProt P34949); assay: PMI enzyme inhibitors, confirmation, biochemical, fluorescence intensity (AID 1535)
T8 sequence (P34949 whole entry): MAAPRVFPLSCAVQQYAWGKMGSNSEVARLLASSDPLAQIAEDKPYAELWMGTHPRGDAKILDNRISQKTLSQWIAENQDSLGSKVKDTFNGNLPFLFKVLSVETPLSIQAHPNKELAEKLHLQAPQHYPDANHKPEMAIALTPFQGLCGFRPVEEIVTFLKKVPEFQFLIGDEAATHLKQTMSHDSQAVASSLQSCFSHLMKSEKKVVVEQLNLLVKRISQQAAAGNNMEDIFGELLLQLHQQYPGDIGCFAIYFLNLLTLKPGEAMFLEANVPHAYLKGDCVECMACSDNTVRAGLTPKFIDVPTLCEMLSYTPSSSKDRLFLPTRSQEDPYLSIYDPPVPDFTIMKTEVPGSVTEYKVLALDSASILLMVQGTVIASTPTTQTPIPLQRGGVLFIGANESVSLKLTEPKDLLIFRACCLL

[16] = target: DNA dC->dU-editing enzyme APOBEC-3A (Homo sapiens, UniProt P31941); assay: APOBEC3A DNA deaminase inhibitors, dose response, biochemical (AID 504722); format: functional
Chain of DNA dC->dU-editing enzyme APOBEC-3A (P31941 whole entry): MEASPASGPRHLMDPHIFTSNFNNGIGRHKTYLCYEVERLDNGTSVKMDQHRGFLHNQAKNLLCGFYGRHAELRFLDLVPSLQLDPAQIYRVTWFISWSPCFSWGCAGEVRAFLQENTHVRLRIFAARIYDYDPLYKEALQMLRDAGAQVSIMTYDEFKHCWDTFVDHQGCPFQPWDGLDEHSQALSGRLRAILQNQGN

Phosphomannomutase 2 = Phosphomannomutase 2 (Homo sapiens, UniProt O15305); assay: Counter screen SAR assay for PMM2 inhibitors via a fluorescence intensity assay. [Related pubchem assays (depositor defined):AID1545, AID1574]
Chain of Phosphomannomutase 2 (O15305 whole entry): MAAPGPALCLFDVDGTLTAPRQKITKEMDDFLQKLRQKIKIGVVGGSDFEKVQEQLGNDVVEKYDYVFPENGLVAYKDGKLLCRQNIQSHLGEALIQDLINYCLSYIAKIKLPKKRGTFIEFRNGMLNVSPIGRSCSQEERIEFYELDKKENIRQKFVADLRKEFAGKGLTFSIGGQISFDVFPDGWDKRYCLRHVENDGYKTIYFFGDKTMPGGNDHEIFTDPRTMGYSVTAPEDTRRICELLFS

[17] = target: DNA dC->dU-editing enzyme APOBEC-3G (Homo sapiens, UniProt Q9HC16); assay: Dose Response confirmation of small molecule APOBEC3G DNA Deaminase Inhibitors via a fluorescence-based single-stranded DNA deaminase assay. [Related pubchem assays (depositor defined):AID493012, AID493028]; format: functional
Chain of DNA dC->dU-editing enzyme APOBEC-3G (Q9HC16 whole entry): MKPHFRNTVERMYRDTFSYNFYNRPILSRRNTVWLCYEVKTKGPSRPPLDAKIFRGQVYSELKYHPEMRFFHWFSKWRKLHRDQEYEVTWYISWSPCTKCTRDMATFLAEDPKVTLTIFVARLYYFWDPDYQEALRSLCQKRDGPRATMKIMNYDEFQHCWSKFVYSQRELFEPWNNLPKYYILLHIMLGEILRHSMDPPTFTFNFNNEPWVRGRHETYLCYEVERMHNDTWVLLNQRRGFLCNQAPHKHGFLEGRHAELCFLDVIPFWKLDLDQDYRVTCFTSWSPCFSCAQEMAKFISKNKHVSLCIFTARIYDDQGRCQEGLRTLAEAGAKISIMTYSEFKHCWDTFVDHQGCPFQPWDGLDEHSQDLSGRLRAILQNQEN

[18] = target: E3 ubiquitin-protein ligase Mdm2 (Homo sapiens, UniProt Q00987); assay: enhancers of MDM2-luciferase reporter signal, concentration-effect titration, project on inhibitors of MDM2 ubiquitin ligase, cellular assay, luminescent readout, 384-well plate format (AID 1394); format: functional;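 also: MDM2 E3 inhibitors raise luminescence so EC50 is for signal enhancement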
Chain of E3 ubiquitin-protein ligase Mdm2 (Q00987 whole entry): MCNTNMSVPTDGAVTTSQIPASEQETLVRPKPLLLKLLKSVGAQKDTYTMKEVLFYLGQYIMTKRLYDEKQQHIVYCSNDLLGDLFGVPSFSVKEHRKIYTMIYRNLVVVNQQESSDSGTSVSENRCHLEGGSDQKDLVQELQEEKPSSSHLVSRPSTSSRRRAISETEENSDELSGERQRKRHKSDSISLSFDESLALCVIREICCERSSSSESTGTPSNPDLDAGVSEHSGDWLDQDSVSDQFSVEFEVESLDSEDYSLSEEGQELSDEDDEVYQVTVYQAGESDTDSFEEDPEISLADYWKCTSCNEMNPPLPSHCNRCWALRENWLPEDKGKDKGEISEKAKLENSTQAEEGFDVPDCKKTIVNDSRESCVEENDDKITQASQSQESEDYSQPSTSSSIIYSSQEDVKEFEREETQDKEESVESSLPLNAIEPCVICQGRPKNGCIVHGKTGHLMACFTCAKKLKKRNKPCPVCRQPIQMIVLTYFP

[19] = target: T2, Heat shock factor protein 1; assay: HSF1 potentiators in luciferase reporter cells, confirmation, cell-based, NIH3T3, luminescence, dose retest (AID 435004); format: functional;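 also: stress induced by proteasome inhibitor MG132 added 30 min after compound; luciferase reporter driven by HSF1 response element in NIH3T3 cells; actives raise luminescence as potentiators of the MG132 stress response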
[20] = target: T9, Polyadenylate-binding protein 1 (Homo sapiens, UniProt P11940); assay: PABP1 MLLE–PAM2 interaction inhibitors, dose response, miRNA deadenylation inhibitor project, biochemical, fluorescence polarization, Cy5-PAM2 peptide, secondary (AID 602260); format: functional; details: read-out: IC50_Mean
T9 sequence (P11940 whole entry): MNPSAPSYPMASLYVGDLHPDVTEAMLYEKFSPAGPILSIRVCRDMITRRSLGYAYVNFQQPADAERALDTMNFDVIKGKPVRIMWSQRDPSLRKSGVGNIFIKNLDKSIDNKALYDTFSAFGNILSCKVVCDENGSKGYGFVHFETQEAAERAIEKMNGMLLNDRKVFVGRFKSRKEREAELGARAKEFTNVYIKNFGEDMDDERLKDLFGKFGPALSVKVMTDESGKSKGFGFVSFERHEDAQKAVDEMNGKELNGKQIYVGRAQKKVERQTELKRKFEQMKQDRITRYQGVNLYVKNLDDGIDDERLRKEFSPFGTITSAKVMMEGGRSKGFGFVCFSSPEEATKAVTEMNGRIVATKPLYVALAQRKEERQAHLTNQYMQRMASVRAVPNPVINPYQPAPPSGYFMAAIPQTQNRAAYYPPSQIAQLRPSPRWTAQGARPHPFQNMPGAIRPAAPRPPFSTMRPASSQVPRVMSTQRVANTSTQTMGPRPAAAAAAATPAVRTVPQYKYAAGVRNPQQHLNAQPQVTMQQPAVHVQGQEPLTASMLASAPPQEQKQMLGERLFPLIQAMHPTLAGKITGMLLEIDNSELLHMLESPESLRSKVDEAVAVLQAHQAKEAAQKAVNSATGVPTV

[21] = target: T9, Polyadenylate-binding protein 1; assay: PABP1 MLLE–PAM2 binding inhibitor potency, dose response, biochemical, fluorescence polarization, FITC-PAM2 peptide (AID 602259); format: functional; details: read-out: IC50_Mean
[22] = cytotoxicity in HEK-293T cells, dose response, cytotoxicity control for TCR NF-kB inhibitor project, luminescence, T-cell screen hits (AID 489026); format: functional, cell-based;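 also: cells exposed to compound about 14 hours before the viability readout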

For CC(C)c1cc(N2CCN(C(=O)c3ccco3)CC2)n2c(nc3ccccc32)c1C#N, the IC50 [1] was > 100 µM (inactive), the IC50 [2] was > 100 µM (inactive) and the IC50 (H9c2) was 15.5 µM (active).
In the case of COc1ccc(C(=O)/C=C/C(=O)N(CC(=O)NC2CCCCC2)Cc2ccc(F)cc2)c(O)c1, the EC50 [3] is reported as 5.29 µM (active), the EC50 [4] is reported as 1.61 µM (active) and the EC50 [5] is reported as > 60 µM (not active). The EC50 [6] was > 32 µM (inactive) and the AC50 [7] was 5.45 µM (active).
For O=C(CCCN1C(=O)/C(=C/c2ccccc2)SC1=S)Nc1ccc(C(=O)O)c(O)c1, the IC50 [8] was < 500 nM (active), the IC50 [9] was 2.67 µM (active) and the IC50 [10] was 17.2 µM (active). The IC50 [11] was > 100 µM (inactive), the IC50 [12] was 85 µM (active) and the IC50 [13] was > 32 µM (inactive). The AC50 [14] was 12.3 µM (active) and the EC50 (Protein RecA) was 15.4 µM (active).
With COc1ccc(OC)c(/N=c2\ssnc2Cl)c1 the IC50 [15] was 4.35 µM (active), the IC50 [16] was > 100 µM (inactive) and the IC50 (Phosphomannomutase 2) was > 100 µM (inactive). For the same compound, the IC50 [17] was 15.4 µM (active).
For Cc1cc(C)nc(S/C=C/C(=O)c2ccccc2F)n1, the EC50 [18] was 1 µM (active), the EC50 [19] was 14.7 µM (active) and the AC50 [7] was 5.37 µM (active). The IC50 [20] was > 66 µM (inactive) and the IC50 [21] was > 66 µM (inactive).
For Cc1ccc(/N=c2\ssnc2Cl)cc1[N+](=O)[O-], the IC50 [15] was 4.46 µM (active) and the IC50 (Phosphomannomutase 2) was > 100 µM (inactive).
For Nc1nc(-c2ccccc2)cc(N2CCCCC2)n1, the IC50 [22] was > 80 µM (inactive).
